Assay results published in patent publication US8129427B2, “2-phenylethylamino derivatives as calcium and/or sodium channel modulators” (Newron Pharmaceuticals S.p.A., priority 2005, dated 2012).
pIC50: −log10 of the molar value.

How the values were obtained:
[1] = system: maximal electroshock seizures in mice; assay: Maximal electroshock test (MES) in mice; type: in vivo, mouse; settings: i.v., 5 minutes before testing
From the text: Animals and Apparatus: Male CDl mice weighing 25 g were used. The procedure described by White et al. (White H. S., Woodhead J. H., Franklin […]., and Wolf H. H. Antiepileptic Drugs (1995) 4th ed: 99-110, Raven Press, Ltd., New York) was followed. An Ugo Basile electroconvulsive generator (Model ECT UNIT 7801) was used to deliver an electrical stimulus sufficient to produce a hindlimb tonic extensor response in at least 97% of control animals. The stimulus was delivered intra-aurally through clip electrodes in mice (0.7 s of a 40 mA shock, with a pulse train of 80 Hz having a pulse duration of 0.4 ms). […] Ten mice were studied per group. Complete suppression of the hindlimb tonic extensor component of seizures was taken as evidence of anticonvulsant activity.

N-type calcium channels = N-type calcium channels (Homo sapiens, UniProt Q00975); assay: N-type calcium channel influx assay (fluorescence); type: cell-based; settings: differentiated IMR32 cells, nifedipine 1 μM, 100 mM KCl depolarization; read-out: IC50
[2] = target: recombinant human N-type channels, h α1B (hCav2.2)+β1b+α2δ-1 subunits (Homo sapiens, UniProt Q00975); assay: Patch clamp studies of calcium currents inhibition in HEK293 cells; type: cell-based; settings: tonic block, preconditioning −50/−55 mV (half maximal steady-state inactivated condition); read-out: IC50 (Vhalf)
Experimental: Functional inhibition of the N-type Ca currents was studied using whole cell patch clamp methods (Hamill O. P., Marty A., Neher E., Sakmann B., Sigworth F. J. Pflugers Arch. (1981) 391: 85-100) on HEK293 cells expressing recombinant human N-type channels, obtained after transient transfection of h α1B (hCav2.2)+β1b+α2δ-1 subunits.
Membrane currents were recorded and filtered at 5 kHz with an Axon Axopatch 200B amplifier and digitized with an Axon Digidata 1322A (Axon Instruments, CA, USA). Voltage clamping of membrane potentials and data acquisition were controlled online with Axon pClamp8 software. Measuring and reference electrodes were AgCl—Ag electrodes. Cells had initial seal resistances of >1 GΩ and access resistances of 4.2±0.2 MΩ. Cells were continuously superfused with extracellular solutions using a Biologic RSC-200.
For calcium currents recording the control bath solution contained (mM): Choline chloride (70), MgCl2 (1), BaCl2 (20), TEA.Cl (50), Hepes (10), Glucose (10). Internal pipette solution consisted of (mM): CsCl (140), EGTA (10), MgCl2 (2), Hepes (10), MgATP (1), GTP Tris (0.3).
Compounds were dissolved as 20 mM stock solutions in DMSO and then diluted to the final concentration in the external solutions.
A two-step protocol was used to determine the voltage dependence of the block:
N-type current was activated by a 600 ms step pulse to +10 mV (test pulse) from a 5000 ms preconditioning potential of −110 mV (resting condition) or −50/−55 mV (half maximal steady-state inactivated condition), respectively.
The amplitude of calcium current peaks evoked by the respective test pulses at a frequency of 0.06 Hz were measured before and after exposure to the test substance. Tonic block of currents was calculated as the difference between the peak calcium current measured at the end of a stabilization period in the control external bath solution and peak currents measured at the end of test substance perfusion period (when steady state is reached) divided by control peaks. […]

Chain of recombinant human N-type channels, h α1B (hCav2.2)+β1b+α2δ-1 subunits (Q00975 whole entry): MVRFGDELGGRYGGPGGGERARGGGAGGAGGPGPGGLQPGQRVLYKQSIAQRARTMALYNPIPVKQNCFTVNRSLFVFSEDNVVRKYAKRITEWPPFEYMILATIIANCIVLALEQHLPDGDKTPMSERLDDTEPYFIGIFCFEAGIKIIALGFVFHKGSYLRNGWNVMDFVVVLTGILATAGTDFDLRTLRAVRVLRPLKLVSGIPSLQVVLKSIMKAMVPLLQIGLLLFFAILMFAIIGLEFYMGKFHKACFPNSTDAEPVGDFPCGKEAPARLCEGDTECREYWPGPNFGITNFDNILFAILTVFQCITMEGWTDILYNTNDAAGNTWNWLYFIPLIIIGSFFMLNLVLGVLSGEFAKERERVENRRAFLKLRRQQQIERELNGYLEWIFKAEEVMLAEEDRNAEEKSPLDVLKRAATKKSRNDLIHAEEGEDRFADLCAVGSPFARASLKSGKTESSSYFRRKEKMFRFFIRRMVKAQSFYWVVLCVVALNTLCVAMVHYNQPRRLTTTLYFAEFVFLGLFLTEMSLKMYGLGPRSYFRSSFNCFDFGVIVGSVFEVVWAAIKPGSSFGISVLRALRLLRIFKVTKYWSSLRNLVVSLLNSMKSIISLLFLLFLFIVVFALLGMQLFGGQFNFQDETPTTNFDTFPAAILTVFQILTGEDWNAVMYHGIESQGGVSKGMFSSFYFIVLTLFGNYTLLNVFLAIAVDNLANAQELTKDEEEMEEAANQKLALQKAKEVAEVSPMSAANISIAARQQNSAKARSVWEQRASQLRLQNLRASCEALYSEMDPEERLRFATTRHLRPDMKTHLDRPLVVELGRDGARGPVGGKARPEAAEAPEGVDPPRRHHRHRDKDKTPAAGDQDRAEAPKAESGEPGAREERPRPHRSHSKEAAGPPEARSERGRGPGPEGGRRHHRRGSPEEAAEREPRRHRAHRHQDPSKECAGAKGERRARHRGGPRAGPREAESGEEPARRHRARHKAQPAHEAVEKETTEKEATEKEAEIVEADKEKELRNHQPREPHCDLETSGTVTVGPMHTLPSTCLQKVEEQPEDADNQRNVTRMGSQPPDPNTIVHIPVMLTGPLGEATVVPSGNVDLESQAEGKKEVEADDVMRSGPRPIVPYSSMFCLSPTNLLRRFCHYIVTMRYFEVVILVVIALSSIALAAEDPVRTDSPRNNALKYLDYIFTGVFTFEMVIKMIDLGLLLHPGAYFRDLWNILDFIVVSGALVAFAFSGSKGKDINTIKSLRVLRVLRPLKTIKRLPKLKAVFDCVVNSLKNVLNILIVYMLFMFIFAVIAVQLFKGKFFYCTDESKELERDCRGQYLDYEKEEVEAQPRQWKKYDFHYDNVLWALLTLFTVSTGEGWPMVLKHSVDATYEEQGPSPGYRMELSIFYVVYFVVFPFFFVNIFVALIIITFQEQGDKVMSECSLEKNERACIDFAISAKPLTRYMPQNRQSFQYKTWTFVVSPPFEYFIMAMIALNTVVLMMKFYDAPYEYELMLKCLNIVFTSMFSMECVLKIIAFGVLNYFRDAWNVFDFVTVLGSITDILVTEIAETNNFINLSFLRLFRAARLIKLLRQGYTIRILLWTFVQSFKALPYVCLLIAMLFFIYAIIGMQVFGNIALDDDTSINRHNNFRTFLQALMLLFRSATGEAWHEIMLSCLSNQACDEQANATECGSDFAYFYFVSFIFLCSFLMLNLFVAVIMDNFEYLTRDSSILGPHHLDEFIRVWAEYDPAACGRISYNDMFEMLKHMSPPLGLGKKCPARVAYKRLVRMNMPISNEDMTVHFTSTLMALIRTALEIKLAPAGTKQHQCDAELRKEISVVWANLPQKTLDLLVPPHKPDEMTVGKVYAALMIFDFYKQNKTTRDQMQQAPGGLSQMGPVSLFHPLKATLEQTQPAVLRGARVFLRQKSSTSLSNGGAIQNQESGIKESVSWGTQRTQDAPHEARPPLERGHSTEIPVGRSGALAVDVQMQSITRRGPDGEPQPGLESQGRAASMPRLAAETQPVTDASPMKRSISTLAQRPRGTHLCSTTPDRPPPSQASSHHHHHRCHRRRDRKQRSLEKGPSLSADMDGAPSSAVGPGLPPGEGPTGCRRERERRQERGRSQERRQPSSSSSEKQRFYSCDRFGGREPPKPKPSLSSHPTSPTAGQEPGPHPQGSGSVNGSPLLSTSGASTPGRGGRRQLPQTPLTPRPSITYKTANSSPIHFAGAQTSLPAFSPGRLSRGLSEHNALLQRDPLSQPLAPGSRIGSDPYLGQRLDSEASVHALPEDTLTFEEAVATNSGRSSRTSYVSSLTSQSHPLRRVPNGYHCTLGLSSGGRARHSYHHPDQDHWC
Chain of recombinant human N-type channels, h α1B (hCav2.2)+β1b+α2δ-1 subunits (Q02641 whole entry partner): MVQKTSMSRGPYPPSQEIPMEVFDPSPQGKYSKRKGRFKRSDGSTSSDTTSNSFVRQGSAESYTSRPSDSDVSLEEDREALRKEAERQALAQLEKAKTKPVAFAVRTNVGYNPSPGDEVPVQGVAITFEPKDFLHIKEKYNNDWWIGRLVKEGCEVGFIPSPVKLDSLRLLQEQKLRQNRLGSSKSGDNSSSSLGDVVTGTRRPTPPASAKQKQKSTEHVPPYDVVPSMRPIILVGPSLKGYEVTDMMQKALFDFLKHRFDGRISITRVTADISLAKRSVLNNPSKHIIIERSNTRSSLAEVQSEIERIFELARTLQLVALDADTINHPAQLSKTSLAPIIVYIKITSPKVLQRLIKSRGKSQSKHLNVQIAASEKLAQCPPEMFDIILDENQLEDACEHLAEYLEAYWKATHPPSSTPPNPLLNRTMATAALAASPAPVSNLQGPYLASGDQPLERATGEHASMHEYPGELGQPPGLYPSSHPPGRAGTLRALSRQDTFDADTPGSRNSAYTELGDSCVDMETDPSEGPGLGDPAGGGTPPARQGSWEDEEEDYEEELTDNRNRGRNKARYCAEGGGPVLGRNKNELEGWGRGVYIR
Chain of recombinant human N-type channels, h α1B (hCav2.2)+β1b+α2δ-1 subunits (P54289 25-956 partner limits assumed): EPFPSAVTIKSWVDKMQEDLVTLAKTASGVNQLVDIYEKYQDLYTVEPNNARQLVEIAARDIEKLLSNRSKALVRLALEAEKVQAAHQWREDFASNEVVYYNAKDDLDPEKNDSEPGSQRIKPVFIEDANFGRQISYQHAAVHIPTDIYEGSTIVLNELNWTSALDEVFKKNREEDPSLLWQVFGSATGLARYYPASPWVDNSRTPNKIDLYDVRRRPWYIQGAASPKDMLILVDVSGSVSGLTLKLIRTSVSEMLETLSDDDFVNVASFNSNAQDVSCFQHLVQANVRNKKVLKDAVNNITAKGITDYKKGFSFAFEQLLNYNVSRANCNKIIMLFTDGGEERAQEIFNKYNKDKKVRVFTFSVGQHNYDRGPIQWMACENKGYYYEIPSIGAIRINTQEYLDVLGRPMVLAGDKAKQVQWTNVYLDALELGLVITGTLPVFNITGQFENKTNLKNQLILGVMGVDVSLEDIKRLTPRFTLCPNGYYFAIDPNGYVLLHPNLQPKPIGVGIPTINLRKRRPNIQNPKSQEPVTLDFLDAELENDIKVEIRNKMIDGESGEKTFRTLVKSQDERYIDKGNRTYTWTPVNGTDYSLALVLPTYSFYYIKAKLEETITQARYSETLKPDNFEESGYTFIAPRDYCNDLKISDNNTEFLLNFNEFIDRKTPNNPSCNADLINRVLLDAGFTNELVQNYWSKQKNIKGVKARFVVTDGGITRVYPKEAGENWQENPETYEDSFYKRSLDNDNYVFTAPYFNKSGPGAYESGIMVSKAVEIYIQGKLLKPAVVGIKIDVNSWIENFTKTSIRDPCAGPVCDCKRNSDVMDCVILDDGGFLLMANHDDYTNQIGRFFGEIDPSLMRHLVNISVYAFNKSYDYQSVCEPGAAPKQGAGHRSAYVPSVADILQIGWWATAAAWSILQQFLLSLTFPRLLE
Chain of recombinant human N-type channels, h α1B (hCav2.2)+β1b+α2δ-1 subunits (P54289 957-1103 partner limits assumed): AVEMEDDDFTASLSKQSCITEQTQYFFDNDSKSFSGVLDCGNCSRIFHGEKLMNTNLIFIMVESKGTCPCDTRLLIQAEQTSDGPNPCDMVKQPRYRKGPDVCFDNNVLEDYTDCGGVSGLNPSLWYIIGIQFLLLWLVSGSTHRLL
Chain of N-type calcium channels (Q00975 whole entry): as the sequence (Q00975 whole entry) above
Chain of N-type calcium channels (Q02641 whole entry partner): as the sequence (Q02641 whole entry partner) above
Chain of N-type calcium channels (P54289 25-956 partner limits assumed): as the sequence (P54289 25-956 partner limits assumed) above
Chain of N-type calcium channels (P54289 957-1103 partner limits assumed): as the sequence (P54289 957-1103 partner limits assumed) above

Row | SMILES | 50% Protection [1] | pIC50 (N-type calcium channels) | pIC50 [2]
1 | CCCCOc1cccc(CCN(CC(=O)N(C)C)CC2CCOC2)c1.Cl (racemic) [Example 96, 2-[[2-(3-Butoxy-phenyl)-ethyl]-(tetrahydrofuran-3-ylmethyl)amino]-N,N-dimethyl-acetamide hydrochloride] | (0.8 mg/kg/iv) | – | –
2 | C[C@H](NCc1ccc(OCc2ccccc2F)cc1)C(N)=O [ralfinamide, (S)-(+)-2-[4-(2-fluoro-benzyloxy)-benzylamino]-propanamide, reference compound] | – | 4.64 | 4.82
